Patent publication US9034308B2, “Anti-sensitivity, anti-caries, anti-staining, anti-plaque ultra-mild oral hygiene agent” (RHODIA OPERATIONS, priority 2003, dated 2015)

Assays:
[1] = Interaction with calcium phosphates (foaming); type: physicochemical; conditions: 1 Kg powder added to 1800 ml of 10% solution, pH ~7
Method: Disappearance of foaming was indicative of loss of surfactant from bulk solution. Increased hydrophobicity of the calcium phosphate was indicative of surfactant adsorption onto the solid particles.
A typical calcium based abrasive tooth paste formulation was prepared using dibasic calcium phosphate, dihydrate as the abrasive and conventional mixing techniques as shown below. […] This finding was in contrast to an earlier patent discussed above (U.S. Pat. No. 4,152,421) and was presumably so because of the strong interaction of the potassium dodecyl phosphate (1.2%) with the calcium phosphate abrasive.

[2] = 1% solution, in vitro; cited from earlier work
[3] = 14C labeling, in the presence of saliva; cited from earlier work

Row | Compound | amount bonded to 40 mg HA [3] [mg] | other results
1 | CCCCCCCCCCCCOP(=O)([O-])[O-].[K+].[K+] [potassium dodecyl phosphate] | – | foaming of the solution after addition of dibasic calcium phosphate, dihydrate [1]: significantly reduced
2 | dioctyl phosphate | – | rate of calcium demineralization on treated teeth [2]: lower rate of calcium demineralization
3 | dodecyl-3 EO monoalkyl phosphate | 0.20 to 0.35 | –
4 | hexadecyl-8 EO ethoxylate | < 0.05 | –
